Results reported in the OligoGym collection.
Several values for one entry are separate records, joined by “and”; a condition that tells them apart may be missing. Equal values may be shown once. After the bases stand the sugars from the 5' end (letter, count) and the backbone: PS all phosphorothioate, else s phosphorothioate and o phosphodiester by linkage. Methylation of C is not given here. e = 2'-O-(2-methoxyethyl) (MOE); k = constrained ethyl (cEt); d = 2'-deoxy (DNA)

biological target: IRF4; conditions: ASO, MM.1R, 0.0625 µM

Sequence	target mRNA inhibition
TGGTATTTTTCCGTTC (sugars k3 d10 k3, PS)	6%

same assay, conditions: ASO, MM.1R, 0.074 µM

Sequence	target mRNA inhibition
TGGTATTTTTCCGTTC (sugars k3 d10 k3, PS)	13%

same assay, conditions: ASO, MM.1R, 0.222 µM

Sequence	target mRNA inhibition
TGGTATTTTTCCGTTC (sugars k3 d10 k3, PS)	6%

same assay, conditions: ASO, MM.1R, 0.25 µM

Sequence	target mRNA inhibition
TGGTATTTTTCCGTTC (sugars k3 d10 k3, PS)	20%

same assay, conditions: ASO, MM.1R, 0.666 µM

Sequence	target mRNA inhibition
TGGTATTTTTCCGTTC (sugars k3 d10 k3, PS)	24%

same assay, conditions: ASO, MM.1R, 1 µM

Sequence	target mRNA inhibition
TGGTATTTTTCCGTTC (sugars k3 d10 k3, PS)	39%
TTTAAGAGGCGACTGC (sugars k3 d10 k3, PS)	-100%
CTCTGTAACTGACTAA (sugars k3 d10 k3, PS)	16%
AGATTTACACCGTTGC (sugars k3 d10 k3, PS)	30%
TAGGACTAAGGACAGC (sugars k3 d10 k3, PS)	-5%
AGAGACCATGTTCAGA (sugars k3 d10 k3, PS)	12%
GCAGTGATGTCAGGTT (sugars k3 d10 k3, PS)	39%
CTGCTTGAGGTTTTCC (sugars kkdddddddddkekek, PS)	30%
CTGGCCTGAAGCTTAG (sugars k3 d10 k3, PS)	25%
GAGGAAGTCCCCTTCC (sugars k3 d10 k3, PS)	4%
TAGTATGAGAAACGGC (sugars kdddddddddkekeke, PS)	32%
TCACTACCTGCAGCCA (sugars k3 d10 k3, PS)	6%
CGGGAGCCCGGAGGAA (sugars k3 d10 k3, PS)	-3%
TTGGTTGGCTGGTCTT (sugars kkdddddddddkekek, PS)	65%
TCTATAGTGTTCCAGG (sugars k2 d9 e3 k2, PS)	50%
CTGGATTGCTGATGTG (sugars k3 d10 k3, PS)	56% and 36%
ATGGCTAAACCTGGCA (sugars k3 d10 k3, PS)	22%
CATAGGTCCTTCAGAT (sugars k3 d10 k3, PS)	-5%
TTTCTACAAGGTCTGA (sugars k3 d10 k3, PS)	3%
GGCACATCAATGTTTT (sugars kkddddddddddkeke, PS)	9%
CGCGACTCTGTCAGTT (sugars k3 d10 k3, PS)	8%
GACACTTTTAGAGAGG (sugars kddddddddddkekek, PS)	23%
CCGGTAGAGTGAGATG (sugars k3 d10 k3, PS)	-3%

same assay, conditions: ASO, MM.1R, 2 µM

Sequence	target mRNA inhibition
TGGTATTTTTCCGTTC (sugars k3 d10 k3, PS)	51%

same assay, conditions: ASO, MM.1R, 4 µM

Sequence	target mRNA inhibition
TGGTATTTTTCCGTTC (sugars k3 d10 k3, PS)	73%
CTGGATTGCTGATGTG (sugars k3 d10 k3, PS)	83% and 71%

same assay, conditions: ASO, SK-MEL-28, 0.185 µM

Sequence	target mRNA inhibition
GACTCCATGAGGTTTT (sugars k3 d10 k3, PS)	14% and 10% and 1%

same assay, conditions: ASO, SK-MEL-28, 4 µM

Sequence	target mRNA inhibition
TGGTATTTTTCCGTTC (sugars k3 d10 k3, PS)	69%
GTGGGTCCCAAGATCG (sugars k3 d10 k3, PS)	40%
TCCACCTGCATCGAGA (sugars k3 d10 k3, PS)	47%
GTCGAACCTCTGGTTC (sugars k3 d10 k3, PS)	-10%
AAGTAACTGACACGCA (sugars k3 d10 k3, PS)	23%
CAGGAAACCGCTGGCA (sugars k3 d10 k3, PS)	74%
CCCCGCGGTCCCGCTG (sugars k3 d10 k3, PS)	41%
AACACCTGATCTTGCT (sugars k3 d10 k3, PS)	-10%
CAACAGGCGGACACGC (sugars k3 d10 k3, PS)	42%
CAAAATAGTCACTCAC (sugars k3 d10 k3, PS)	-3%
TTGGCTCCTTTTTTGG (sugars k3 d10 k3, PS)	13%
CTAATACCTACCTGCC (sugars k3 d10 k3, PS)	47%
TGCCTCTGTTAGGTGA (sugars k3 d10 k3, PS)	34%
ATTTACAGCATCTAAG (sugars k3 d10 k3, PS)	47%
TGCGAATGTGCCTTGT (sugars k3 d10 k3, PS)	43%
AATCAGAATGGCGAGT (sugars k3 d10 k3, PS)	39%
CCCAAGCCTTGAAGAG (sugars k3 d10 k3, PS)	6%
TAGCATGGATCCTGAG (sugars k3 d10 k3, PS)	0%
CTTCTTTATAGTAGGT (sugars k3 d10 k3, PS)	20%
TCCCTTAGGATAATAT (sugars k3 d10 k3, PS)	48%
TTTATAACCGGTAGAG (sugars k3 d10 k3, PS)	54%
CTCACGAGCACCTCAG (sugars k3 d10 k3, PS)	42%
TCTGAGGGTCTGGAAA (sugars k3 d10 k3, PS)	9%
TAGTAGGTAAGATCTC (sugars k3 d10 k3, PS)	23%
CAGTAACTTGACTTGA (sugars k3 d10 k3, PS)	39%
TCATAGCTAGTTCATT (sugars k3 d10 k3, PS)	52%
TTCAACACACTGTCTG (sugars k3 d10 k3, PS)	-31%
CTCCTACCCGCCTGCT (sugars k3 d10 k3, PS)	15%

Sequence	target mRNA inhibition
GGAGAGGCTGAGATAA (sugars k3 d10 k3, PS)	29%
ATGAACGGAAGTTTAC (sugars k3 d10 k3, PS)	54%
GACATTGGTACGGGAT (sugars k3 d10 k3, PS)	36%
TGCATAACACGGTGTT (sugars k3 d10 k3, PS)	38%
TCTGAGAGCAAATTGA (sugars k3 d10 k3, PS)	29%
GACTCCATGAGGTTTT (sugars k3 d10 k3, PS)	70%
GGGTTACGCTTATTTT (sugars k3 d10 k3, PS)	65%
GTCAATACTGAAAGGC (sugars k3 d10 k3, PS)	66%
GGAAACGAGAACGCAC (sugars k3 d10 k3, PS)	30%
GTCCGACGCACCGCGG (sugars k3 d10 k3, PS)	18%
TTGCATGGCTAATGAA (sugars k3 d10 k3, PS)	42%
CGTATGTCCATGGGAG (sugars k3 d10 k3, PS)	88%
TCGGAACTTTCCTTTA (sugars k3 d10 k3, PS)	33%
AATGTAAGTGATAGGT (sugars k3 d10 k3, PS)	80%
CTCCCAGAGTTGTTCC (sugars k3 d10 k3, PS)	34%
GATAAAGGCTGAACTG (sugars k3 d10 k3, PS)	67%
GCCAAGAGGTGCGAGT (sugars k3 d10 k3, PS)	35%
GCACAAGCATAAAAGG (sugars k3 d10 k3, PS)	16%
ATATTAGAGACTGTAT (sugars k3 d10 k3, PS)	25%
AGCTGGTAGGTCAAAC (sugars k3 d10 k3, PS)	-5%
AGATTAATAGTAAGTT (sugars k3 d10 k3, PS)	4%
ATTCACACTGCCGTGA (sugars k3 d10 k3, PS)	34%
ACCTACAAGCAGTCAT (sugars k3 d10 k3, PS)	46%
CTCTTAGGCACATCAA (sugars k3 d10 k3, PS)	61%
TTAAATAAGATCCCAC (sugars k3 d10 k3, PS)	23%
CTGCTCTGGCACAGTC (sugars k3 d10 k3, PS)	83%
TCACGCAGTGCACCTG (sugars k3 d10 k3, PS)	46%

same assay, conditions: ASO, SK-MEL-28, 5 µM

Sequence	target mRNA inhibition
GACTCCATGAGGTTTT (sugars k3 d10 k3, PS)	58% and 55% and 77%

same assay, conditions: ASO, SK-MEL-28, 15 µM

Sequence	target mRNA inhibition
GACTCCATGAGGTTTT (sugars k3 d10 k3, PS)	76% and 78% and 87%
